Data: article PMC6473556, “Targetable Mechanical Properties by Switching between Self‐Sorting and Co‐assembly with In Situ Formed Tripodal Ketoenamine Supramolecular Hydrogels” (Chemnanomat, 2018)

Legend:
Format in all cases: physicochemical
[1] = Rheometry of the gels (time, frequency and stress sweeps); settings: gel at 40 mM gelator concentration, standard deviation in brackets; for Yield stress: rounded to nearest 10; for G′ / G′′: rounded to nearest 100
Procedure: Another observation is the difference in transparency between the gels (Figure 1). Gels R2 and R6 are noticeably more transparent than the other gels. This transparency is a result of gels R2 and R6 having narrower fibres and therefore scattering less light (Figure S59). […] The responses of the nine presented gels to mechanical stimulus were determined using rheometry (Table 1). Although differences in mechanical properties are apparent when comparing one gel to another the difference between the same gel prepared ex situ and in situ is negligible (see ESI). Once a constant value for G′ had been recording during the time sweep experiments, the gelatinous nature of the materials was confirmed using frequency sweep rheometry.
For all gels the G′ and G“ values remained constant over a frequency range of 0.1–100 Hz, with the value of G′ several times the value recorded for G” (Figure 3). To examine the gels’ non‐linear rheological behaviour stress sweep experiments were conducted. The defining point of the experiment is the yield stress, below which G′ remains essentially constant, but above which the gel begins to flow (see ESI).

[2] = Critical gel concentration, inverted vial method; settings: 0.5 ml water
Procedure: 3.3 Setting gel using the ex situ prepared compound (gels R1 to R8 inclusively):
This procedure describes the method used in a typical setting of the hydrogel at 2 wt% using the previously prepared synthesised compound.
The gel ligand (0.1 g) was suspended in water, to this suspension sodium hydroxide was added (0.05 g, 1.25 mmol). Sonication and gentle heating was used to ensure the ligand had completely dissolved giving a solution with a pH of 9 – 10. To this solution glucono delta-lactone (GdL) (0.08 g, 0.45 mmol) was added and the solution was shaken until the GdL had […]
3.4 Setting gel R9 using the ex situ prepared compound:
This procedure describes the method used in a typical setting of the hydrogel R9 at 2 wt% using the previously prepared synthesised compound R9.
The synthesised compound R9 (0.1 g, 0.21 mmol) was suspended in water (5 ml), to this suspension sodium hydroxide was added (0.05 g, 1.25 mmol). Sonication and gentle heating was used to ensure the ligand had completely dissolved giving a solution with a pH of 9 – 10.
To this solution conc. Hydrochloric acid (0.4 ml) was rapidly added instantly producing a […]
3.5 Critical gel concentration (CGC):
Critical gel concentration was determined using the inverted vial method in 2 ml sample vials using 0.5 ml of water. This method can often give lower CGC values than are determined using a rheometer due to the low volume of solution and the high surface tension within the vials.

[3] = Gelation on lowering the pH with glucono-delta-lactone; settings: in situ reaction at high pH after addition of GdL

For `O=C1C(=CNc2ccc(C(=O)O)cc2)C(=O)C(=CNc2ccc(C(=O)O)cc2)C(=O)C1=CNc1ccc(C(=O)O)cc1` [R1], the Yield stress [1] was 140(10) μNm, the “G′” value [1] was 9000(200) Pa and the “G′′” value [1] was 2300(100) Pa. The “CGC (critical gel concentration)” value [2] was 0.3 Wt%.

With `O=C1C(=CNc2ccc(Cl)c(C(=O)O)c2)C(=O)C(=CNc2ccc(Cl)c(C(=O)O)c2)C(=O)C1=CNc1ccc(Cl)c(C(=O)O)c1` [R2] the Yield stress [1] was 80(20) μNm, the “G′” value [1] was 12700(100) Pa and the “G′′” value [1] was 3300(200) Pa. For the same compound, the “CGC (critical gel concentration)” value [2] was 0.2 Wt%.

For `COc1cc(NC=C2C(=O)C(=CNc3ccc(C(=O)O)c(OC)c3)C(=O)C(=CNc3ccc(C(=O)O)c(OC)c3)C2=O)ccc1C(=O)O` [R3], the Yield stress [1] was 140(20) μNm, the “G′” value [1] was 10200(300) Pa and the “G′′” value [1] was 2100(100) Pa. For the same compound, the “CGC (critical gel concentration)” value [2] was 0.5 Wt%.

For `O=C1C(=CNc2ccc(C(=O)O)cc2O)C(=O)C(=CNc2ccc(C(=O)O)cc2O)C(=O)C1=CNc1ccc(C(=O)O)cc1O` [R4], the Yield stress [1] was 40(10) μNm, the “G′” value [1] was 9300(200) Pa and the “G′′” value [1] was 2100(200) Pa. For the same compound, the “CGC (critical gel concentration)” value [2] was 0.4 Wt%.

In the case of `O=C1C(=CNc2cc(C(=O)O)ccc2O)C(=O)C(=CNc2cc(C(=O)O)ccc2O)C(=O)C1=CNc1cc(C(=O)O)ccc1O` [R5], the Yield stress [1] is reported as 80(20) μNm, the “G′” value [1] is reported as 10800(200) Pa and the “G′′” value [1] is reported as 3100(400) Pa. For the same compound, the “CGC (critical gel concentration)” value [2] was 0.4 Wt%.

With `O=C1C(=CNc2cc(C(=O)O)cc(C(F)(F)F)c2)C(=O)C(=CNc2cc(C(=O)O)cc(C(F)(F)F)c2)C(=O)C1=CNc1cc(C(=O)O)cc(C(F)(F)F)c1` [R6] the Yield stress [1] was 250(30) μNm, the “G′” value [1] was 15400(300) Pa and the “G′′” value [1] was 2600(200) Pa. The “CGC (critical gel concentration)” value [2] was 0.1 Wt%.

With `COc1c(NC=C2C(=O)C(=CNc3cccc(C(=O)O)c3OC)C(=O)C(=CNc3cccc(C(=O)O)c3OC)C2=O)cccc1C(=O)O` [R7] the Yield stress [1] was 90(30) μNm, the “G′” value [1] was 8800(200) Pa and the “G′′” value [1] was 2100(300) Pa. For the same compound, the “CGC (critical gel concentration)” value [2] was 0.5 Wt%.

For `Cc1cc(NC=C2C(=O)C(=CNc3ccc(C(=O)O)c(C)c3)C(=O)C(=CNc3ccc(C(=O)O)c(C)c3)C2=O)ccc1C(=O)O` [R8], the Yield stress [1] was 70(20) μNm, the “G′” value [1] was 9600(100) Pa and the “G′′” value [1] was 2500(200) Pa. For the same compound, the “CGC (critical gel concentration)” value [2] was 0.5 Wt%.

In the case of `O=C1C(=CNc2ccc(O)cc2)C(=O)C(=CNc2ccc(O)cc2)C(=O)C1=CNc1ccc(O)cc1` [R9], the Yield stress [1] is reported as 20(40) μNm, the “G′” value [1] is reported as 1200(100) Pa and the “G′′” value [1] is reported as 300(300) Pa. For the same compound, the “CGC (critical gel concentration)” value [2] was 0.9 Wt%.

For `O=C(O)CCCCCNC=C1C(=O)C(=CNCCCCCC(=O)O)C(=O)C(=CNCCCCCC(=O)O)C1=O` [R10], the Gelation [3] was “no gelation”.
